Where a name gives a salt, the structure may show the parent alone.
Assays:
[1] = Drug loading into ion exchange resin, evaluated spectrophotometrically; format: physicochemical; conditions: for % w/w unbound drug: resin not named
Method: Mediums of different pH were examined in order to achieve the maximum drug loading into the resin. For this reason, the pH of solutions was adjusted at 3, 4, 5, 6, and 7. The drug loaded was evaluated spectrophotometrically. […] Buffer pH=7 enhanced more the effect of drug loading.
The next step was to examine the effect of drug loading into the resin for buffer pH=7 of different ion strength. For this reason, buffer pH=7 of normality 0.1N, 0.2N, 1N were prepared and the drug loaded was evaluated spectrophotometrically as before. Buffer pH=7 0.2N was the most suitable medium as the higher drug loading was reached. (61.60%±2.05%).
At this point of studies, the research focused on the type of IER. For this reason, resins of different functional group were examined to reach the higher drug loading. […] As a result, Purolite C100CaMR and Indion 204 were the most preferred resins that could form hydrogen bonds with the cationic center of Valaciclovir and prevent the release in saliva.

[2] = cited from earlier work
[3] = cited from earlier work; for oral bioavailability of acyclovir: oral administration

drug loading ([1]; Buffer pH=7 0.2N) | % w/w unbound drug ([1]; medium pH 3) | % w/w unbound drug ([1]; medium pH 4) | % w/w unbound drug ([1]; medium pH 5) | % w/w unbound drug ([1]; medium pH 6) | % w/w unbound drug ([1]; medium pH 7) | % w/w unbound drug ([1]; water) | Structure (SMILES) | solubility in dichloromethane ([2]; dichloromethane) | solubility in water ([2]; water) | absorption from the gastrointestinal tract ([3]; after oral administration) | conversion to acyclovir and L-valine ([3]; first-pass intestinal and/or hepatic metabolism) | oral bioavailability of acyclovir [3] | water solubility ([3]; in vivo)
61.60%±2.05% | 79.85%±2.19% | 75.24%±2.91% | 66.69%±2.76% | 61.19%±2.61% | 30.91%±2.53% | 72.61%±2.81% | CC(C)[C@H](N)C(=O)OCCOCn1cnc2c(=O)[nH]c(N)nc21 [Valaciclovir hydrochloride, L-valine, 2-[(2-amino-1,6-dihydro-6-oxo-9H-purin-9-yl)methoxy] ethyl ester, mono hydrochloride] | insoluble | soluble | rapidly absorbed | nearly completely converted |  | 
 |  |  |  |  |  |  | CC(C)[C@H](N)C(=O)OCCOCn1cnc2c(=O)[nH]c(N)nc21 [Valaciclovir, L-valyl acyclovir] |  |  |  |  | high bioavailability of acyclovir | 
 |  |  |  |  |  |  | Nc1nc2c(ncn2COCCO)c(=O)[nH]1 [acyclovir] |  |  |  |  | poor oral bioavailability | poorly water soluble

From US20170202844A1, “PEDIATRIC CHEWABLE TABLET CONTAINING ANTIVIRAL AGENT AND METHOD FOR THE PREPARATION THEREOF” (PHARMATHEN S.A., priority 2014, published 2017)
